This is an account of results in PubChem BioAssay (NCI).

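Step 1: Grow cells in 96-well plates. Step 2: Expose to compound for 48 hours at 5 concentrations. Step 3: Interpolate endpoints linearly; if unreached, use highest concentration. TGI: concentration producing complete growth inhibition.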 Bounds are passed on as bounds.

Common to all, as to assay: growth of human tumour cells (NCI), 48 h
The test system of test [1] is HCC-2998 colon.
The subject of test [2] is NCI-H226 lung.
Test [3] has as its system UACC-62 melanoma.
In test [4] the test system is HL-60(TB) leukemia.
Test [5] relates to XF 498 CNS.
Test [6] relates to TK-10 renal.
Test [7] relates to 786-0 renal.
The subject of test [8] is OVCAR-5 ovarian.
In test [9] the test system is SN12C renal.
The test system of test [10] is HOP-62 NSCLC.
The test system of test [11] is MDA-MB-435.
The subject of test [12] is PC-3 prostate.
In test [13] the test system is NCI/ADR-RES ovarian.

With `COc1cc2[nH]c(-c3cccc(N(C)C)c3)cc(=O)c2cc1OC`, the TGI was 7.5 µM in test [1]; over 25.3 µM in test [2]; over 100 µM in test [3]; over 24.6 µM in [4]; over 100 µM in test [5]; over 100 µM in test [6]. Moreover, the TGI in [7], in test [8], in test [9] and in test [10] was over 100 µM throughout.

Turning to `CCOP(=O)(OCC)/C(C#N)=C/c1ccco1`, the TGI in test [1], in [2], in test [3], in test [4], in [5] and in test [6] was over 100 µM each time. Moreover, the TGI in test [7], in test [8], in test [9] and in [10] was over 100 µM each time.

Consider `CCCCc1c2c(nc3c1CCC/C3=C\c1ccccc1)C(=O)C(CN(C)C)CC2` (stereo not drawn), for which the TGI in test [1] turned out to be 54.7 µM; in test [11], 37.2 µM; in [2], 51.6 µM; in test [3] it was 48.4 µM; in test [4], 18.2 µM; in test [5], 28.2 µM. In addition, the TGI in [12] amounted to 29.1 µM; in test [6], 29.6 µM; in test [7], 23.9 µM; in test [8] it was 33.8 µM; in [9], 43.1 µM; in test [13] it was 91.7 µM. The TGI in test [10] turned out to be 34.1 µM.

In the case of `N#CC12C3C4CC5C6C4C1C6C(O)(C53)N2Cc1ccccc1` (stereo not drawn), the TGI in test [1], in test [2], in test [3], in test [4], in test [5] and in test [6] was over 100 µM throughout. Also, the TGI in test [7], in test [8], in [9] and in test [10] was over 100 µM in each case.

In the case of `COC(=O)c1c(C(=O)OC)c2cc(C(=O)c3ccccc3)ccn2c1Cl`, the TGI is over 100 µM in test [1]; 64.7 µM in test [2]; 88.4 µM in test [3]; 54.2 µM in test [4]; 66.6 µM in test [5]; over 100 µM in [6]. Besides, the TGI in test [7], in test [8], in test [9] and in test [10] was over 100 µM throughout.
